According to the supplement of paper PMC13207355:

Columns and labels:
Details in all cases: exposure time: 72 h
E28 [1] = patient-derived glioblastoma stem cells of classical subtype; assay: surviving fraction (nuclei count normalised to DMSO); higher = more cells surviving (less toxic)
E31 [2] = patient-derived glioblastoma stem cells of proneural subtype; assay: as above
E21 [3] = patient-derived glioblastoma stem cells of mesenchymal subtype; assay: as above
E57 [4] = patient-derived glioblastoma stem cells of mesenchymal subtype; assay: as above
FT3469 [5] = normal neural stem cell line; assay: as above
E34 [6] = patient-derived glioblastoma stem cells of proneural subtype; assay: as above
E13 [7] = patient-derived glioblastoma stem cells of classical subtype; assay: as above
E28 [8] = assay: phenotypic distance (Euclidean, principal components) from DMSO controls (arbitrary units); higher = stronger morphological change
E31 [9] = assay: as above
E21 [10] = assay: as above
E57 [11] = assay: as above
FT3469 [12] = assay: as above
E34 [13] = assay: as above
E13 [14] = assay: as above
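For phenotypic distance (Euclidean, principal components) from DMSO controls in this document: cell Painting imaging in 384-well plates, CellProfiler features reduced to at least 20 principal components, Euclidean distance versus same-plate DMSO vehicle wells (0.1% v/v), median over six images per well.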
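For surviving fraction (nuclei count normalised to DMSO) in this document: nuclei counted by high-content imaging of Hoechst-stained cells in laminin-coated 384-well plates, relative to 0.1% DMSO vehicle wells, with staurosporine as cell-death control.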

CCOC(=O)C1=C(C)NC(C)=C(C(=O)OCC)C1c1c(F)c(F)c(F)c(F)c1F [Nemadipine-A]
surviving fraction (E28 [1]; 4.1 nM): 0.9 | surviving fraction (E28 [1]; 12.3 nM): 1.03 | surviving fraction (E28 [1]; 37 nM): 0.81 | surviving fraction (E28 [1]; 111.1 nM): 0.996 | surviving fraction (E28 [1]; 333.3 nM): 0.945 | surviving fraction (E28 [1]; 1000 nM): 0.934 | surviving fraction (E28 [1]; 3000 nM): 0.704 | surviving fraction (E31 [2]; 4.1 nM): 1.15 | surviving fraction (E31 [2]; 12.3 nM): 1.05 | surviving fraction (E31 [2]; 37 nM): 1.01 | surviving fraction (E31 [2]; 111.1 nM): 1.26 | surviving fraction (E31 [2]; 333.3 nM): 1.3 | surviving fraction (E31 [2]; 1000 nM): 1.15 | surviving fraction (E31 [2]; 3000 nM): 1.13 | surviving fraction (E21 [3]; 4.1 nM): 0.897 | surviving fraction (E21 [3]; 12.3 nM): 0.936 | surviving fraction (E21 [3]; 37 nM): 0.991 | surviving fraction (E21 [3]; 111.1 nM): 0.971 | surviving fraction (E21 [3]; 333.3 nM): 0.924 | surviving fraction (E21 [3]; 1000 nM): 0.931 | surviving fraction (E21 [3]; 3000 nM): 0.838 | surviving fraction (E57 [4]; 4.1 nM): 0.945 | surviving fraction (E57 [4]; 12.3 nM): 1.07 | surviving fraction (E57 [4]; 37 nM): 1.04 | surviving fraction (E57 [4]; 111.1 nM): 0.954 | surviving fraction (E57 [4]; 333.3 nM): 1.03 | surviving fraction (E57 [4]; 1000 nM): 0.984 | surviving fraction (E57 [4]; 3000 nM): 0.77 | surviving fraction (FT3469 [5]; 4.1 nM): 1.03 | surviving fraction (FT3469 [5]; 12.3 nM): 0.928 | surviving fraction (FT3469 [5]; 37 nM): 1.17 | surviving fraction (FT3469 [5]; 111.1 nM): 1.02 | surviving fraction (FT3469 [5]; 333.3 nM): 0.866 | surviving fraction (FT3469 [5]; 1000 nM): 1.1 | surviving fraction (FT3469 [5]; 3000 nM): 0.804 | surviving fraction (E34 [6]; 4.1 nM): 1.01 | surviving fraction (E34 [6]; 12.3 nM): 0.767 | surviving fraction (E34 [6]; 37 nM): 1.14 | surviving fraction (E34 [6]; 111.1 nM): 1.16 | surviving fraction (E34 [6]; 333.3 nM): 1.13 | surviving fraction (E34 [6]; 1000 nM): 0.926 | surviving fraction (E34 [6]; 3000 nM): 0.909 | surviving fraction (E13 [7]; 4.1 nM): 0.797 | surviving fraction (E13 [7]; 12.3 nM): 0.944 | surviving fraction (E13 [7]; 37 nM): 0.915 | surviving fraction (E13 [7]; 111.1 nM): 0.841 | surviving fraction (E13 [7]; 333.3 nM): 0.948 | surviving fraction (E13 [7]; 1000 nM): 1.09 | surviving fraction (E13 [7]; 3000 nM): 0.764 | phenotypic distance (E28 [8]; 4.1 nM): 0.43 | phenotypic distance (E28 [8]; 12.3 nM): 0.613 | phenotypic distance (E28 [8]; 37 nM): 0.807 | phenotypic distance (E28 [8]; 111.1 nM): 0.686 | phenotypic distance (E28 [8]; 333.3 nM): 0.703 | phenotypic distance (E28 [8]; 1000 nM): 0.642 | phenotypic distance (E28 [8]; 3000 nM): 1.14 | phenotypic distance (E31 [9]; 4.1 nM): 0.932 | phenotypic distance (E31 [9]; 12.3 nM): 0.387 | phenotypic distance (E31 [9]; 37 nM): 0.906 | phenotypic distance (E31 [9]; 111.1 nM): 0.74 | phenotypic distance (E31 [9]; 333.3 nM): 1.01 | phenotypic distance (E31 [9]; 1000 nM): 0.415 | phenotypic distance (E31 [9]; 3000 nM): 0.913 | phenotypic distance (E21 [10]; 4.1 nM): 0.903 | phenotypic distance (E21 [10]; 12.3 nM): 0.665 | phenotypic distance (E21 [10]; 37 nM): 0.548 | phenotypic distance (E21 [10]; 111.1 nM): 0.745 | phenotypic distance (E21 [10]; 333.3 nM): 0.572 | phenotypic distance (E21 [10]; 1000 nM): 0.681 | phenotypic distance (E21 [10]; 3000 nM): 1.4 | phenotypic distance (E57 [11]; 4.1 nM): 0.523 | phenotypic distance (E57 [11]; 12.3 nM): 0.695 | phenotypic distance (E57 [11]; 37 nM): 0.79 | phenotypic distance (E57 [11]; 111.1 nM): 0.477 | phenotypic distance (E57 [11]; 333.3 nM): 1.46 | phenotypic distance (E57 [11]; 1000 nM): 0.54 | phenotypic distance (E57 [11]; 3000 nM): 1.46 | phenotypic distance (FT3469 [12]; 4.1 nM): 0.624 | phenotypic distance (FT3469 [12]; 12.3 nM): 0.608 | phenotypic distance (FT3469 [12]; 37 nM): 0.488 | phenotypic distance (FT3469 [12]; 111.1 nM): 0.574 | phenotypic distance (FT3469 [12]; 333.3 nM): 0.712 | phenotypic distance (FT3469 [12]; 1000 nM): 0.892 | phenotypic distance (FT3469 [12]; 3000 nM): 1.01 | phenotypic distance (E34 [13]; 4.1 nM): 0.666 | phenotypic distance (E34 [13]; 12.3 nM): 0.857 | phenotypic distance (E34 [13]; 37 nM): 0.641 | phenotypic distance (E34 [13]; 111.1 nM): 0.619 | phenotypic distance (E34 [13]; 333.3 nM): 0.843 | phenotypic distance (E34 [13]; 1000 nM): 0.698 | phenotypic distance (E34 [13]; 3000 nM): 0.734 | phenotypic distance (E13 [14]; 4.1 nM): 0.957 | phenotypic distance (E13 [14]; 12.3 nM): 0.892 | phenotypic distance (E13 [14]; 37 nM): 0.571 | phenotypic distance (E13 [14]; 111.1 nM): 0.762 | phenotypic distance (E13 [14]; 333.3 nM): 0.542 | phenotypic distance (E13 [14]; 1000 nM): 0.692 | phenotypic distance (E13 [14]; 3000 nM): 0.903
